From patent publication US8771742B2, “Porous cellulose aggregate and molding composition thereof” (Asahi Kasei Chemicals Corporation, priority 2005, dated 2014)

Assays:
Assay type in all cases: physicochemical
[1] = Elution test of drug from cylindrical molded body (paddle, UV absorbance); conditions: ethenzamide; molded body 50 MPa; paddle 100 rpm, 900 mL Pharmacopeia I liquid
Procedure: Cellulose particles A were used. A commercially available ibuprofen (an active component indicated as being almost completely insoluble in water according to Japanese Pharmacopeia 14) was dissolved in polyethylene glycol (Macrogol 400 from Sanyo Kasei Co., Ltd.) at a proportion of 1:5, and then diluted by 10 with ethanol. This was added to the cellulose particles A to result in 10% by weight. The mixture was stirred in a die. A die (from KIKUSUI SEISAKUSHO LTD, made with SUS 2, 3) was filled with 0.2 g of the obtained powder, and a circular flat punch (from KIKUSUI SEISAKUSHO LTD, made with SUS 2, 3) with a diameter of 0.8 cm was used to apply compression until the pressure reached 100 MPa (PCM-1A (Commercial Name) from AIKOH ENGINEERING CO., LTD. was used with a compression rate of 1 cm/min). The cylindrical molded body was released after the target pressure was maintained for 10 seconds. Fluid component effusion on the surface of the molded body was observed, drug elution from the cylindrical molded body (elution tests were conducted with a JASCO Corporation ultraviolet absorption spectrometer at paddle speed 100 rpm and 900 mL of Pharmacopeia I liquid, in which fluid absorbance was measured and the elution rate was calculated 3 minutes after) and disintegration time of the cylindrical molded bodies was measured. […]

[2] = Repose angle (Sugihara type device); conditions: low fluidity component model without cellulose
Procedure: Using a Sugihara type repose angle measuring device (slit size: depth 10 mm×width 50 mm×height 140 mm, a protractor was placed at the position of 50 mm width), the dynamic self-fluidity was measured when cellulose powder was dropped to the slit at 3 g/minute using a quantitative feeder. The angle between the bottom of the device and the top layer of the cellulose powder is the repose angle.

[3] = Reactivity to a drug: aspirin decomposition rate after storage mixed with cellulose; conditions: 60° C., two weeks, closed vial
Procedure: (12) Reactivity to a Drug
Aspirin (Japanese Pharmacopeia crystalline aspirin was treated with a small grinder φ0.5 mm, with 1 pass treatment) and each cellulose sample was mixed at 5/5 (total 0.5 g) in dry conditions and then placed in a glass sample vial and mixed. The vial was stored in an oven (Made by Tabai Espec Corp. Perfect Oven (Commercial Name)) with the cap tightly closed (at 60° C.) for two weeks and then the decomposition rate was measured. Ferric (III) […] sulfate 12 hydrate 8 g was placed in a 100 ml measuring flask, mixed with pure water to bring the volume up to 100 ml to make a coloring test solution. 0.25 g of stored aspirin (total 0.5 g of the blended powder) was introduced to a 50 ml measuring flask, mixed with ethanol to bring the volume up to 50 ml and the mixture was shaken for 5 minutes. Thus obtained ethanol solution was filtered, the filtrate was transferred to a 100 ml measuring flask and ethanol was added to bring the volume up to 100 ml. One milliliter of this ethanol solution and 1 ml of the coloring test solution described above were introduced to a 50 ml measuring flask, mixed with pure water to bring the volume up to 50 ml and the absorption was measured at the wavelength of 532 nm using a UV absorption meter (made by JASCO Corporation). The decomposition rate was calculated from the following formula. […]

**Q.** Which “Elution rate after 1 hour” value [1] does the source give for `CCOc1ccccc1C(N)=O` [Comparative Example 76, ethenzamide] here?
**A.** The value was 9%.

**Q.** Which “Repose angle Before the addition of cellulose” value [2] does the source give for `CC(=O)Nc1ccc(O)cc1` [Component model C, Acetaminophen] here?
**A.** Its value is 55 °.

**Q.** Which aspirin decomposition rate [3] does the source give for `CC(=O)Oc1ccccc1C(=O)O` [aspirin, Aspirin] here?
**A.** Its aspirin decomposition rate is 15%.
